20 molecules from patent US11680060B2, “Bicycloheptane pyrrolidine orexin receptor agonists” (Merck Sharp & Dohme LLC, priority 2020, dated 2023) can be followed below.

For this assay, the target named is human OX2R (Homo sapiens (Human), UniProt O43614). The experiment in a line: IPOne (IP-1) assay in CHO cells expressing human OX2R. Format: cell-based. The settings on record: for Emax: CHO, read-out: Emax (%); for Emax / Emax (%): percentage of mean max effect of a reference compound at 1 uM (100% activity by comparison to Orexin A), human OX2R; for IC50: CHO cells expressing human OX2R, IP-One detection, 2 hours incubation, EC50 = inflection point of four parameter logistic fit, read-out: hOX2R_IP_IC50. An excerpt: The utility of the compounds in accordance with the present invention as orexin receptor OX1R and/or OX2R agonists may be readily determined without undue experimentation by methodology well known in the art. Both the OX1R and/or OX2R G-coupled protein receptors (GPCRs) couple through the Gαq signaling pathway, which ultimately promotes calcium mobilization via inositol triphosphate (IP3) production. The half-life of IP-3 is relatively short, being rapidly metabolized to inositol monophosphate (IP-1), which can be readily detected using a commercially available assay kit (IP-One; Cisbio; cat #621PAPEC) coupled with a cell line expressing the target receptor(s) of interest. The utility of the compounds in accordance with the present invention as orexin receptor OX1R and/or OX2R agonists may be determined utilizing this assay.
Chain of human OX2R (O43614 whole entry): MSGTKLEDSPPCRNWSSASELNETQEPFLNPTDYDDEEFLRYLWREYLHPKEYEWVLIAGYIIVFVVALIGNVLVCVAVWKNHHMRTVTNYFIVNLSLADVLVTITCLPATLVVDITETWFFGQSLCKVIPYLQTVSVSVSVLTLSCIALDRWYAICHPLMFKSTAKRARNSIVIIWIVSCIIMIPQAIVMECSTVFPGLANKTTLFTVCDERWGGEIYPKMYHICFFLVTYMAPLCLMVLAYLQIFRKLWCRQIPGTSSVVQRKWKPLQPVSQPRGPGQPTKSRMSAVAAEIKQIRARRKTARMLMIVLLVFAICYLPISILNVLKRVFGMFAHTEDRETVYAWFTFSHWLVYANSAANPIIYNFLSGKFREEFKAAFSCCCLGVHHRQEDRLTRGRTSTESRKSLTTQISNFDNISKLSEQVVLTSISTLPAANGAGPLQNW
In a typical experiment, the OX1 and OX2 receptor agonist activity is determined in accordance with the following general experimental method. Chinese hamster ovary (CHO) cells expressing human OX1R and/or the human OX2R were grown in Iscove's modified DMEM containing glutaMAX™, 1% G418, 100 U/mL penicillin, 100 μg/mL streptomycin and 10% heat-inactivated qualified fetal bovine serum (FBS). The OX2R cells were seeded at 10,000 cells/well/50 μL and the OX1R cells were seeded at 20,000 cells/well/50 μL into 384-well white tissue culture plates (Greiner; cat #781080). All cell/media reagents were from GIBCO-Invitrogen Corp. The seeded cell plate(s) were incubated at 37° C. with 5% CO2 and 85% humidity for 20-24 hours. On the day of the assay, assay-ready compound plates were prepared using an acoustic liquid handler (ECHO; Labcyte), which dispensed sufficient volume of test compound stock (10 mM in DMSO) or 100% DMSO to prepare 10 point, ½-log dilutions in a final volume of 202.5 nL/well in all test wells of a 384-well diamond plate (Labcyte). Following completion of assay-ready plates, importantly, the next three steps were performed with minimal delay: 1) 20 μl of 1× stimulation buffer was added to the compound plate using a Multidrop Combi (small cassette, Thermo Fisher Scientific cat #24073290); 2) culture medium was removed from the cell plate using the Bluewasher plate washer (gentle spin; BlueCatBio); 3) 14 μl of compound/stimulation buffer mixture was added to the cell plate using a Bravo liquid handler (Agilent) prior to incubating cell plates at 37° C. with 5% CO2 and 85% humidity for 1 or 2 hours (OX1R and OX2R, respectively). During this incubation, IP-one detection reagents were prepared (38:1:1 lysis buffer:D2:AB-cryptate reagents). Six μL of mixed detection reagents were added to the cell plate using a Multidrop Combi (small cassette, Thermo Fisher Scientific cat #24073290) and incubated 60 minutes at room temperature in the dark. Fluorescence signal was detected using an Envision plate reader (Perkin Elmer) [LANCE/DELFIA Dual Enh (Em: APC 665; Ex: Cy5 620)].
For each compound, data were fit to a four parameter logistic fit (ActivityBase software) and the EC50 was reported as the inflection point of the resulting curve. Percent effect for each test compound was determined as the percentage of sample raw value/mean max effect, where the mean max effect was derived from the mean raw value of 32 control wells per assay plate (using Orexin A (cat #003-30) at 1 μM for human OX1R and a reference compound at 1 uM with 100% activity previously established by comparison to Orexin A for human OX2R). The intrinsic orexin receptor agonist activity of a compound which may be used in the present invention may be determined by these assays.

The term Emax denotes the maximal effect, on the per cent scale that the assay sets. `COC(=O)N1[C@H](C)C[C@H](NS(C)(=O)=O)[C@@H]1CO[C@@H]1CC[C@]2(c3ncc(F)cn3)C[C@@H]2C1` [Example 136, methyl (2R,3S,5R)-2-((((1R,3R,6S)-6-(5-fluoropyrimidin-2-yl)bicyclo[4.1.0]heptan-3-yl)oxy)methyl)-5-methyl-3-(methylsulfonamido)pyrrolidine-1-carboxylate]: the maximum response (Emax) is 101%.
Same read-out and setting: the result for `COC(=O)N1[C@H](C)C[C@H](NS(=O)(=O)Cc2ccccc2)[C@@H]1CO[C@H]1CC[C@@]2(c3ncc(F)cn3)C[C@H]2C1` [Example 34, methyl (2R,3S,5R)-2-((((1S,3S,6R)-6-(5-fluoropyrimidin-2-yl)bicyclo[4.1.0]heptan-3-yl)oxy)methyl)-5-methyl-3-((phenylmethyl)sulfonamido)pyrrolidine-1-carboxylate] reads 96.5%.
`COC(=O)N1[C@H](C)C[C@H](NS(C)(=O)=O)[C@@H]1COC1CC[C@@]2(c3nccs3)C[C@H]2C1` (single isomer, unassigned) [Example 146]: the IC50 came out at 50.7 nM and the maximum response (Emax) amounted to 101%.
The corresponding values for `COC(=O)N1[C@H](C)C[C@H](NS(C)(=O)=O)[C@@H]1COC1CCC2(c3ccccc3)CC2C1` (single isomer, unassigned) [Example 1] are 20.6 nM and 99.6%.
Turning to `C[C@@H]1C[C@H](NS(C)(=O)=O)[C@H](CO[C@H]2CC[C@@]3(c4ncc(F)cn4)C[C@H]3C2)N1C(=O)OC[C@H]1C[C@H]1F` [Example 51, ((1R,2R)-2-fluorocyclopropyl)methyl (2R,3S,5R)-2-((((1S,3S,6R)-6-(5-fluoropyrimidin-2-yl)bicyclo[4.1.0]heptan-3-yl)oxy)methyl)-5-methyl-3-(methylsulfonamido)pyrrolidine-1-carboxylate], the maximum response (Emax) was determined as 102%.
The same measure, in the same setting: for `COC(=O)N1[C@H](C)C[C@H](NS(=O)(=O)N(C)C)[C@@H]1COC1CCC2(c3ccccn3)CC2C1` (stereo partly drawn) [Example 9, methyl (2R,3S,5R)-3-((N,N-dimethylsulfamoyl)amino)-5-methyl-2-(((6-(pyridin-2-yl)bicyclo[4.1.0]heptan-3-yl)oxy)methyl)pyrrolidine-1-carboxylate] the value was 99%; for `COC(=O)N1[C@H](C)C[C@H](NS(C)(=O)=O)[C@@H]1COC1CCC2(c3ncc(Cl)cn3)CC2C1` (stereo partly drawn) [Example 140, methyl (2R,3S,5R)-2-(((6-(5-chloropyrimidin-2-yl)bicyclo[4.1.0]heptan-3-yl)oxy)methyl)-5-methyl-3-(methylsulfonamido)pyrrolidine-1-carboxylate], 103%.
Turning to `COC(=O)N1CC[C@H](NS(C)(=O)=O)[C@@H]1CO[C@H]1CC[C@@]2(c3ncccn3)C[C@H]2C1` (single isomer, unassigned) [Example 177], the IC50 is 238 nM and the maximal response (Emax) was 99.8%.
Consider `COC(=O)N1[C@H](C)C[C@H](NS(C)(=O)=O)[C@@H]1COC1CCC2(c3nc4c(F)ccc(F)c4s3)CC2C1` (stereo partly drawn) [Example 71, methyl (2R,3S,5R)-2-(((6-(4,7-difluorobenzo[d]thiazol-2-yl)bicyclo[4.1.0]heptan-3-yl)oxy)methyl)-5-methyl-3-(methylsulfonamido)pyrrolidine-1-carboxylate], for which the maximal effect (Emax) stood at 57.9%.
Still for that read-out and setting: the result for `COC(=O)N1[C@H](C)C[C@H](NS(=O)(=O)N(C)C)[C@@H]1COC1CCC2(c3cccc(F)c3)CC2C1` (mixture of isomers) [Example 3, methyl (2R,3S,5R)-3-((N,N-dimethylsulfamoyl)amino)-2-(((6-(3-fluorophenyl)bicyclo[4.1.0]heptan-3-yl)oxy)methyl)-5-methylpyrrolidine-1-carboxylate] reads 99.9%.
Turning to `CC(C)OC(=O)N1[C@H](C)C[C@H](NS(=O)(=O)N(C)C)[C@@H]1CO[C@@H]1CC[C@]2(c3ncc(F)cn3)C[C@@H]2C1` (single isomer, unassigned) [Example 160], the IC50 amounted to 1.6 nM and the Emax amounted to 102%.
For the molecule `COC(=O)N1[C@H](C)C[C@H](NS(=O)(=O)N(C)C)[C@@H]1COC1CCC2(c3ncccn3)CC2C1` (single isomer, unassigned) [Example 187], the IC50 is 2.1 nM and the “Emax (%)” value was found to be 100.0%.
In the case of `C[C@@H]1C[C@H](NS(C)(=O)=O)[C@H](CO[C@H]2CC[C@@]3(c4ncc(F)cn4)C[C@H]3C2)N1C(=O)OC[C@H]1[C@H](C)C1(F)F` [Example 55, ((1R,3S)-2,2-difluoro-3-methylcyclopropyl)methyl (2R,3S,5R)-2-((((1S,3S,6R)-6-(5-fluoropyrimidin-2-yl)bicyclo[4.1.0]heptan-3-yl)oxy)methyl)-5-methyl-3-(methylsulfonamido)pyrrolidine-1-carboxylate], the maximum response (Emax) is 105%.
`CC(C)OC(=O)N1[C@H](C)C[C@H](NS(=O)(=O)CF)[C@@H]1CO[C@@H]1CC[C@]2(c3ncc(Cl)cn3)C[C@@H]2C1` (single isomer, unassigned) [Example 96]: the IC50 amounted to 6.5 nM and the maximal effect (Emax) amounted to 103%.
As for `COC(=O)N1[C@H](C)C[C@H](NS(=O)(=O)C(F)(F)F)[C@@H]1CO[C@@H]1CC[C@]2(c3ncc(F)cn3)C[C@@H]2C1` [Example 44, methyl (2R,3S,5R)-2-((((1R,3R,6S)-6-(5-fluoropyrimidin-2-yl)bicyclo[4.1.0]heptan-3-yl)oxy)methyl)-5-methyl-3-((trifluoromethyl)sulfonamido)pyrrolidine-1-carboxylate], the maximum response (Emax) came out at 103%.
On the same count and under the same terms, the result for `C[C@@H]1C[C@H](NS(C)(=O)=O)[C@H](CO[C@H]2CC[C@@]3(c4ncc(F)cn4)C[C@H]3C2)N1C(=O)OCC1(C)CC1(F)F` (stereo partly drawn) [Example 57, (2,2-difluoro-1-methylcyclopropyl)methyl (2R,3S,5R)-2-((((1S,3S,6R)-6-(5-fluoropyrimidin-2-yl)bicyclo[4.1.0]heptan-3-yl)oxy)methyl)-5-methyl-3-(methylsulfonamido)pyrrolidine-1-carboxylate] reads 102%.
As for `CC(C)OC(=O)N1[C@H](C)C[C@H](NS(=O)(=O)C(F)F)[C@@H]1COC1CCC2(c3ncc(F)cn3)CC2C1` (single isomer, unassigned) [Example 92], the IC50 is 775 nM and the “Emax (%)” value is 73.2%.
For `COC(=O)N1[C@H](C)C[C@H](NS(=O)(=O)C(F)F)[C@@H]1COC1CCC2(c3ncccn3)CC2C1` (mixture of isomers) [Example 67, methyl (2R,3S,5R)-3-((difluoromethyl)sulfonamido)-5-methyl-2-(((6-(pyrimidin-2-yl)bicyclo[4.1.0]heptan-3-yl)oxy)methyl)pyrrolidine-1-carboxylate], the IC50 worked out at 3.4 nM and the Emax was 101%.
As for `COC(=O)N1[C@@H]2CCC[C@@H]2[C@H](NS(C)(=O)=O)[C@@H]1CO[C@H]1CC[C@@]2(c3ncc(F)cn3)C[C@H]2C1` (single isomer, unassigned) [Example 131], the IC50 was determined as 1.8 nM and the Emax was determined as 101%.
The corresponding values for `COC(=O)N1[C@H](C)C[C@H](NS(=O)(=O)CF)[C@@H]1CO[C@H]1CC[C@@]2(c3ncc(Cl)cn3)C[C@H]2C1` [Example 79, methyl (2R,3S,5R)-2-((((1S,3S,6R)-6-(5-chloropyrimidin-2-yl)bicyclo[4.1.0]heptan-3-yl)oxy)methyl)-3-((fluoromethyl)sulfonamido)-5-methylpyrrolidine-1-carboxylate] are 0.86 nM and 103%.
